Here are results for 7 compounds from patent EP1538162B1, “Compositions for altering mucus secretion” (NORTH CAROLINA STATE UNIVERSITY, priority 1999, dated 2000).

Assay [1] relates to MARCKS. Kind of assay: Phosphorylation state of MARCKS in airway epithelial cells. It counts as cell-based, human. On the procedure:
To detect MARCKS protein in these cells, cells were labeled with ^3H-myristic acid (as MARCKS is myristoylated) for 16 hours in media. Cells were lysed, and MARCKS protein was immunoprecipitated according to the method of Spizz & Blackshear (J Biol Chem 271:553, 1996) using monoclonal antibody 2F12 (a gift from the Blackshear laboratory).
(§1) Phosphorylation of MARCKS by PMA was attenuated by Calphostin C (500 nM). NHBE cells also contained substantial amounts of cGMP-dependent protein kinase type 1α (PKG-1α) activity, which was localized to the cytosolic fraction. […] In addition, the phosphorylation of MARCKS induced by PMA was reversed by incubation with 8-Br-cGMP (10 µM).

Assay [2] relates to normal human bronchial epithelial (NHBE) cells. The assay can be described thus: UTP-induced mucin secretion, air-liquid interface culture, mucus ELISA. In kind it is cell-based. As to conditions: for mucin secretion in cells stimulated by secretagogues: general statement, Example 9: 15 min pre-incubation, UTP 0.1 mM 2 hours, 500 nM calphostin C, 10 µM Rp-8-Br-PET-cGMP, 50 µM LY83583. As for the experimental part: (§2) Cell Culture System: Expansion and cryopreservation. Primary normal human bronchial epithelial (NHBE) cells (Clonetics, San Diego, CA) were seeded into vented T75 tissue culture flasks (500 cells/cm^2) in bronchial epithelial basal medium (BEBM; Clonetics, San Diego, CA) containing 25 ng/ml human recombinant epidermal growth factor (EGF; Intergen, Purchase, NY), 65 ng/ml bovine pituitary extract (prepared by the methods of Bertolero et al. Exp Cell Res 155:64, 1984), 5 x 10^-8M all-trans retinoic acid, 1.5µg/ml bovine serum albumin (Intergen, Purchase, NY), 20 IU/ml nystatin (Gibco, Grand Island, NY), 0.5µg/ml hydrocortisone, 5µg/ml insulin, 10µg/ml transferrin, 0.5µg/ml epinephrine, 6.5ng/ml triiodothyronine, 50µg/ml gentamicin, and 50µg/ml amphotericin-B (Clonetics; San Diego, CA). Once confluent, cultures were dissociated with trypsin/EDTA and frozen as passage-2 according to the methods of Clonetics Corporation.
Air-liquid interface culture of NHBE cells. Following the expansion, NHBE cells were cultured in air/liquid interface according to the methods of Gray and coworkers with minor modifications (Gray et al. Am J Respir Cell Mol Biol 14:104, 1996). The air-liquid interface culture was initiated by seeding NHBE cells (passage-2, 2x10^4 cells/cm^2) on Transwell-clear culture inserts (24.5 mm, 0.45 µm pore size; Costar, Cambridge, MA) that were thin coated with rat tail collagen, type I (Collaborative Research, Bedford, MA). Cells were cultured submerged to 70% confluency (5-7 days) in a 1:1 mixture of bronchial epithelial cell growth medium (Clonetics, San Diego, CA):Dulbecco's modified Eagles medium with high glucose (BEGM:DMEM-H), containing the same supplements as described above with the exception of EGF (0.5 ng/ml). When cultures were 70% confluent, the air-liquid interface was created by removing the apical medium, and the basal medium (BEGM:DMEM-H) was changed daily thereafter. Cells were then cultured for an additional 14 days in air-liquid interface, a total of 21 days in culture.
(§3) Mucus ELISA: Mucus secreted from the airway epithelial cells in vitro after stimulation by activators was assessed using an ELISA (antibody capture method) (E. Harlow, D. Lane. "Antibodies: A Laboratory Manual." New York: Cold Spring Harbor Laboratory Press, 1988), wherein the collected mucus is bound directly to the ELISA plate. Mucus was detected using an antibody raised against monkey airway mucus (Lin et al. Am J Respir Cell Mol Biol 1:41, 1989). […]
NHBE cells were pre-incubated with the indicated inhibitor for 15 min, then stimulated with UTP (0.1mM) for 2 hours. Secreted mucin in the apical medium was collected and assayed by ELISA.

Assay [3] has as its target T1, cGMP-dependent protein kinase type 1α (PKG-1α) (Homo sapiens, UniProt Q13976).
T1 construct: NHBE cells also contained substantial amounts of cGMP-dependent protein kinase type 1α (PKG-1α) activity; endogenous in cells; host or cells: primary normal human bronchial epithelial (NHBE) cells, Clonetics
T1 sequence (Q13976 1-671): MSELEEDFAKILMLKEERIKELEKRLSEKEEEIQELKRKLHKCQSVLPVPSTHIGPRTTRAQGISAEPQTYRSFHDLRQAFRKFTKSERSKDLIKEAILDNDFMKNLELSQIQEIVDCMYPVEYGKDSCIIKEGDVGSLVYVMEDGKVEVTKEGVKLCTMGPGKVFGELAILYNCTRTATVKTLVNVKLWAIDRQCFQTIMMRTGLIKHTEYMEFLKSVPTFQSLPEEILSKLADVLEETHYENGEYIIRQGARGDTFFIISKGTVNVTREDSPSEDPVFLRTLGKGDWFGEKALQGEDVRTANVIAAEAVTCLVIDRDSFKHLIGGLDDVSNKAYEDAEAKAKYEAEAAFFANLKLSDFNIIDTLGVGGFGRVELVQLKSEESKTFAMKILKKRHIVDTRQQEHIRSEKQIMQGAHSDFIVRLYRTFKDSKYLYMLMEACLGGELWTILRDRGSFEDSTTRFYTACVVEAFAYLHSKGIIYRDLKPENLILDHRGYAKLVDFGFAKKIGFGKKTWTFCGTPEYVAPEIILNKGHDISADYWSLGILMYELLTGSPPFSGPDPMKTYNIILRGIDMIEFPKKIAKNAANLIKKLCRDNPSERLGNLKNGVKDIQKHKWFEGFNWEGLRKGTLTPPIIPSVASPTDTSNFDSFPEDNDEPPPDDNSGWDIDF
Kind of assay: PKG activity in NHBE cells. It counts as cell-based. As to conditions: 100 µM. As for the experimental part: as §1

The test system of assay [4] is normal human bronchial epithelial (NHBE) cells. The assay can be described thus: Mucin secretion stimulated by PMA + 8-Br-cGMP, air-liquid interface culture, mucus ELISA. In kind it is cell-based. As to conditions: 500nM, pre-incubated 15 min; PMA (100 nM) + 8-Br-cGMP (1µM) for 15 min. As for the experimental part: as §2, with “Corporation. […]” for “Corporation.”
as §3

For the compound `Nc1nc2c(nc(Br)n2[C@@H]2O[C@@H]3COP(=O)(O)O[C@H]3[C@H]2O)c(=O)[nH]1` [8-Br-cGMP, 8-bromo-cGMP], the “phosphorylation of MARCKS induced by PMA” value in assay [1] (10 µM) is listed as “reversed”.

In the case of `CCCCCCCCCCCCCC(=O)O[C@@H]1[C@@H](C)[C@@]2(O)[C@@H](C=C(CO)C[C@]3(O)C(=O)C(C)=C[C@@H]23)[C@@H]2C(C)(C)[C@]12OC(C)=O` [PMA, phorbol 12-myristate 13-acetate], in assay [1] (PMA 100 nM, concentration of 4α-PMA not given), the “phosphorylation of MARCKS” value is “phosphorylated”.

For the compound `O=C1C(Nc2ccccc2)=CC(=O)c2ncccc21` [LY83585], the “mucin secretion in cells stimulated by secretagogues” value (from here on “mucin secretion in cells stimulated”) in assay [2] is listed as “inhibit mucin secretion”.

Consider dibutyryl cGMP, for which the “constitutive PKG activity” value in assay [3] is listed as “increased”.

With `O=c1c2nc(Br)n(C3OC4COP(=O)(S)OC4C3O)c2nc2[nH]c(-c3ccccc3)cn12` (centres unmarked) [Rp-8-Br-PET-cGMP], the “mucin secretion in cells stimulated” value in assay [2] was “inhibit mucin secretion”.

Regarding calphostin C, the “mucin secretion in cells stimulated” value in assay [2] is on record as “inhibit mucin secretion”. Moreover, the “phosphorylation of MARCKS by PMA” value in assay [1] (500 nM) is listed as “attenuated”.

With `C=C1[C@@H](O)[C@@H]2O[C@]3(CC[C@H](/C=C/[C@@H](C)[C@@H]4CC(C)=C[C@@]5(O[C@H](C[C@@](C)(O)C(=O)O)CC[C@H]5O)O4)O3)CC[C@H]2O[C@@H]1[C@@H](O)C[C@H](C)[C@H]1O[C@@]2(CCCCO2)CC[C@H]1C` [okadaic acid], the “mucin hypersecretion induced by PMA + 8-Br-cGMP” value in assay [4] is listed as “blocks mucin hypersecretion”. Moreover, in assay [2] (500nM, pre-incubated 15 min, UTP (0.1 mM) for 2 hours), the “mucin hypersecretion induced by UTP” value was “blocks mucin hypersecretion”. In addition, the “mucin secretion in cells stimulated” value in assay [2] was “inhibit mucin secretion”. In assay [1] (500 nM), the “reversal by 8-Br-cGMP of PMA-induced phosphorylation of MARCKS” value is “inhibited this effect”.
